According to US20190119282A1, “IMIDAZOPYRIDAZINES USEFUL AS INHIBITORS OF THE PAR-2 SIGNALING PATHWAY” (Vertex Pharmaceuticals Incorporated, priority 2013, published 2019):
Marks after values point to notes of the source that are not given here. Each block holds one compound with its values, some of them ahead of it.

Columns and labels:
[1] = biological target: T1, PAR2 (HT-29 cells, SLIGKV activation) (Homo sapiens, UniProt P55085); experiment: Ca FLIPR TETRA assay, ANTAGONIST mode, stimulation with 8 μM SLIGKV; assay type: cell-based; conditions: HT-29 cells
T1 construct: host or cells: HT-29 cells
T1 sequence (P55085 26-397): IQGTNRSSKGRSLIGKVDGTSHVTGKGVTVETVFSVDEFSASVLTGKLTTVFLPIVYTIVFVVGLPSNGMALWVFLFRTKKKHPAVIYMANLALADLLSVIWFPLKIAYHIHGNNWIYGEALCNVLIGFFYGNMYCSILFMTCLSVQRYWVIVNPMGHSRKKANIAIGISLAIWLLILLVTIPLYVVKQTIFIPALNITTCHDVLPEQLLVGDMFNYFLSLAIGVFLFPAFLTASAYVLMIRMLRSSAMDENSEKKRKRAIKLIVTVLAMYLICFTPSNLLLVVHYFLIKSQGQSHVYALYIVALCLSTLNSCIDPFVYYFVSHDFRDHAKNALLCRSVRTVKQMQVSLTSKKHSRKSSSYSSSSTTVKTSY
Method in brief: (§1)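 FLIPR Tetra Ca2+ read-out in HT-29 cells, calcium 5 dye. Compound preincubation 30 min r.t., with an initial read for agonist activity. Final activator levels: SLIGKV 8 μM, thrombin 1 U/mL, trypsin 3.1 U/mL, UTP 0.6 μM.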

[2] = biological target: T2, PAR2 (HT-29 cells, trypsin activation) (Homo sapiens, UniProt P55085); experiment: Ca FLIPR TETRA assay, ANTAGONIST mode, stimulation with 3.1 U/mL trypsin; assay type: cell-based; conditions: HT-29 cells
T2 construct: host or cells: HT-29 cells
T2 sequence (P55085 26-397): T1 sequence (P55085 26-397)
Method in brief: as §1

[3] = test system: Thrombin-stimulated Ca2+ response in HT-29 cells; experiment: Ca FLIPR TETRA assay, ANTAGONIST mode, stimulation with 1 U/mL Thrombin; assay type: cell-based, human; conditions: Homo sapiens, HT-29 cells
Method in brief: as §1

[4] = test system: UTP-stimulated Ca2+ response in HT-29 cells; experiment: Ca FLIPR TETRA assay, ANTAGONIST mode, stimulation with 0.6 μM UTP; assay type: cell-based, human; conditions: Homo sapiens, HT-29 cells
Method in brief: as §1

[5] = test system: carrageenan-induced paw edema; experiment: Rat carrageenan-induced paw edema model; assay type: in vivo, Sprague Dawley rats; conditions: given before carrageenan challenge
Description: Male Sprague Dawley rats and BALB/c mice were housed in groups in a temperature controlled room and were acclimatized in the animal facility for at least three days prior to use. Experiments were performed during the light phase of the cycle. Animals have food and water ad libitum.
Example 63: Rat Carrageenan-Induced Paw Edema Model
Peripheral inflammation was induced by intra-plantar administration of 100 ul of a 1% w/volume (in saline) carrageenan solution under isoflurane anesthesia. The degree of swelling was assessed using the plethysmometer at 2-3-4-5-6 h after carrageenan injection. Test compound or vehicle (0.5% MC/0.1% SDS) was systemically administered at the indicated doses in a volume of 5 mL/kg either I-3 hour before carrageenan challenge (Table 9) or 2 hours post carrageenan challenge (Table 10).
Data are expressed as the mean % effect. Statistical significance was assessed using t-test for comparison between naive and inflamed rats, and one-way ANOVA followed by post-hoc comparison test for overall drug effectiveness. A difference between groups is considered significant with a p value of <0.05. *, p<0.05; **, p<0.01; ***, p<0.001 vs. vehicle.

[6] = In vivo rat pharmacokinetics (intravenous and oral); conditions: plasma; for clearance: intravenous 0.5 to 1 mg/kg, read-out: Clp; for Vd: intravenous, read-out: Vss; for bioavailability: oral by gavage; for half-life: read-out: T ½ (converted)
Description: Example 61: Protocol for Testing PAR2 Compounds In Vivo Rat Pharmacokinetics Experiments
Compounds delivered by intravenous route were formulated using a solution formulation consisting of 5% N-methylpyrrolidone 10% Vitamin E-TPGS and 85% water (v/v/) or a solution formulation consisting of 25% N-methylpyrrolidone 35% polyethylene glycol 400 and 40% water (v/v/). Intravenous formulations were administered by a bolus injection (over approximately 10 seconds) using a hypodermic needle attaches to a syringe (tail vein). The dose volume was varied from 1 to 2 mL/kg and the dose was varied from 0.5 to 1 mg/kg. Compounds delivered orally were formulated as a solution formulation consisting of 5% N-methylpyrrolidone 10% Vitamin E-TPGS and 85% water (v/v/) or as fine suspension using a cellulose derivative suspending agent with or without the addition of a wetting agent/surfactant. Milling of large particles was performed as needed to reduce particle size using focused electroacoustic milling, homogenization or low energy media milling. A spray-dried solid dispersion was prepared for key compounds using 1:1 combination with cellulose derivatives. Test compounds were administered orally by gavage using a gavage plastic needle attached to a syringe. The dose volume was varied from 5 to 10 mL/kg and the dose was varied from 1 to 600 mg/kg.
Rats were bled by venipuncture (jugular vein) and the samples were collected into tubes containing K3EDTA. The tubes were placed on wet ice until processed. The samples were centrifuged for approximately 10 minutes (at approximately 4° C.) within approximately 30 minutes of collection to prepare plasma or diluted in citrate buffer (1:3) and stored frozen (approximately −30° C.). Thawed plasma or whole blood samples were extracted by protein precipitation using an organic solvent followed by centrifugation. The supernatants were separated by high-performance liquid chromatography coupled to mass spectrometry detection. A calibration curve was prepared using reference standard compounds spiked into either blank plasma or whole blood matrices and extracted similarly to unknown samples. Pharmacokinetic parameters were calculated using non-compartmental analysis.

[7] = antagonist mode, stimulation with 8 μM SLIGKV
[8] = antagonist mode, stimulation with 3.1 U/mL trypsin
[9] = antagonist mode, stimulation with 1 U/mL Thrombin
[10] = antagonist mode, stimulation with 0.6 μM UTP

Compound: CC(C)c1cc(-c2ccc(F)cc2)nn2cc(C(=O)N3CCN(C(=O)C4(O)CCOCC4)CC3(C)C)nc12 [Compound I-27, [6-(4-fluorophenyl)-8-isopropyl-imidazo[1,2-b]pyridazin-2-yl]-[4-(4-hydroxytetrahydropyran-4-carbonyl)-2,2-dimethyl-piperazin-1-yl]methanone]
IC50 ([1]; stimulation with 8 μM SLIGKV): 59 nM
IC50 ([2]; stimulation with 3.1 U/mL trypsin): 250 nM
IC50 ([3]; stimulation with 1 U/mL Thrombin): 35000 nM
IC50 ([4]; stimulation with 0.6 μM UTP): 42000 nM
% inhibition of carrageenan induced paw edema ([5]; dose 3 mg/kg): 16%
% inhibition of carrageenan induced paw edema ([5]; dose 6 mg/kg): 25* %
% inhibition of carrageenan induced paw edema ([5]; dose 10 mg/kg): 30%
% inhibition of carrageenan induced paw edema ([5]; dose 20 mg/kg): 33** %
% inhibition of carrageenan induced paw edema ([5]; dose 30 mg/kg): 31* %
% inhibition of carrageenan induced paw edema ([5]; dose 60 mg/kg): 30** %

Compound: C[C@@H]1C[C@H](c2cc(-c3ccc(F)cc3)nn3cc(C(=O)N4CCN(C(=O)[C@H]5C[C@](O)(C(F)(F)F)C5)CC4(C)C)nc23)C[C@H](C)O1 [Compound I-213]
IC50 [1, 7]: 3.5 nM
IC50 [2, 8]: 5.4 nM
IC50 [3, 9]: > 1000 nM
IC50 [4, 10]: > 1000 nM
% inhibition of carrageenan induced paw edema ([5]; dose 7 mg/kg): 36* %

Compound: CC(C)(C)c1cc(-c2ccc(C(F)(F)F)cc2)nn2cc(C(=O)N3CCN(c4cn[nH]c4)C(=O)C3(C)C)nc12 [Compound I-366]
IC50 [1, 7]: 2.2 nM
IC50 [2, 8]: 2.5 nM
IC50 [3, 9]: > 1000 nM
IC50 [4, 10]: > 1000 nM
% inhibition of carrageenan induced paw edema ([5]; dose 20 mg/kg): 43** %

Compound: Cc1cc(-c2cc(C(C)(C)C)c3nc(C(=O)N4CCN(c5cn[nH]c5)C(=O)C4(C)C)cn3n2)ccc1F [Compound I-417]
IC50 [1, 7]: 2.5 nM
IC50 [2, 8]: 3.2 nM
IC50 [3, 9]: > 1000 nM
IC50 [4, 10]: > 1000 nM
% inhibition of carrageenan induced paw edema ([5]; dose 20 mg/kg): 32** %

Compound: CC(C)(C)c1cc(C2CCC(F)(F)CC2)nn2cc(C(=O)N3CCN(c4cn[nH]c4)C(=O)C3(C)C)nc12 [Compound I-429]
IC50 [1, 7]: 2.4 nM
IC50 [2, 8]: 3.3 nM
IC50 [3, 9]: > 1000 nM
IC50 [4, 10]: > 1000 nM
% inhibition of carrageenan induced paw edema ([5]; dose 20 mg/kg): 43** %

Compound: CC(C)(C)c1cc(C2CCC(F)(F)CC2)nn2cc(C(=O)N3CCN(C(=O)[C@H]4C[C@@](C)(O)C4)CC3(C)C)nc12 [Compound I-452, [8-tert-butyl-6-(4,4-difluorocyclohexyl)imidazo[1,2-b]pyridazin-2-yl]-[4-(3-hydroxy-3-methyl-cyclobutanecarbonyl)-2,2-dimethyl-piperazin-1-yl]methanone]
IC50 [1, 7]: 3.3 nM
IC50 [2, 8]: 6.2 nM
IC50 [3, 9]: 7850 nM
IC50 [4, 10]: 11600 nM
clearance [6]: 7.24 mL/min/kg
Vd [6]: 1.96 L/kg
bioavailability [6]: 67%
half-life [6]: 3.62 h

Compound: Cc1n[nH]c(C(=O)N2CCN(C(=O)c3cn4nc(-c5ccc(F)cc5)cc(C(C)(C)C)c4n3)CC2)n1 [Compound I-525]
IC50 [1, 7]: 116 nM
IC50 [2, 8]: 247 nM
IC50 [3, 9]: > 1000 nM
IC50 [4, 10]: > 1000 nM
% inhibition of carrageenan induced paw edema ([5]; dose 50 mg/kg): 9%

Compound: CC(C)(C)c1cc(-c2ccc(F)cc2)nn2cc(C(=O)N3CCN(C(=O)[C@H]4CC[C@@](C)(C(=O)O)CC4)CC3(C)C)nc12 [Compound I-563, (1S,4S)-4-(4-(8-(tert-butyl)-6-(4-fluorophenyl)imidazo[1,2-b]pyridazine-2-carbonyl)-3,3-dimethylpiperazine-1-carbonyl)-1-methylcyclohexane-1-carboxylic acid]
IC50 ([1]; antagonist mode, 8 μM SLIGKV): 0.3 nM
IC50 ([2]; antagonist mode, 3.1 U/mL trypsin): 0.4 nM
IC50 ([3]; antagonist mode, 1 U/mL Thrombin): > 1000 nM
IC50 ([4]; antagonist mode, 0.6 μM UTP): > 1000 nM
clearance [6]: 61.7 mL/min/kg
Vd [6]: 1.19 L/kg
bioavailability [6]: 15%
half-life [6]: 0.413 h

More lines, main results first:

IC50 [1, 7]: 0.7 nM
IC50 [2, 8]: 1.6 nM
IC50 [3, 9]: 570 nM
IC50 [4, 10]: 420 nM
Compound: CC(C)(C)c1cc(-c2ccc(F)cc2)nn2cc(C(=O)N3CCN(C(=O)c4nc[nH]n4)CC3(C)C)nc12 [Compound I-227]
% inhibition of carrageenan induced paw edema ([5]; dose 0.3 mg/kg): 35* %
% inhibition of carrageenan induced paw edema ([5]; dose 10 mg/kg): 64** %

IC50 [1, 7]: 0.6 nM
IC50 [2, 8]: 0.8 nM
IC50 [3, 9]: 590 nM
IC50 [4, 10]: 590 nM
Compound: CC(C)(C)c1cc(-c2ccc(F)cc2)nn2cc(C(=O)N3CCN(C(=O)c4cn[nH]c4)CC3(C)C)nc12 [Compound I-228]
% inhibition of carrageenan induced paw edema ([5]; dose 10 mg/kg): 48** %

IC50 [1, 7]: 1.7 nM
IC50 [2, 8]: 2 nM
IC50 [3, 9]: > 1000 nM
IC50 [4, 10]: > 1000 nM
Compound: CC(C)c1cc(-c2ccc(C(F)(F)F)cc2)nn2cc(C(=O)N3CCNC(=O)C3(C)C)nc12 [Compound I-241]
% inhibition of carrageenan induced paw edema ([5]; dose 7 mg/kg): 17** %

IC50 [1, 7]: 0.6 nM
IC50 [2, 8]: 0.7 nM
IC50 [3, 9]: > 1000 nM
IC50 [4, 10]: > 1000 nM
Compound: Cn1nnc(N2CCN(C(=O)c3cn4nc(-c5ccc(F)cc5)cc(C(C)(C)C)c4n3)C(C)(C)C2=O)n1 [Compound I-249]
% inhibition of carrageenan induced paw edema ([5]; dose 10 mg/kg): 49*** %
% inhibition of carrageenan induced paw edema ([5]; dose 30 mg/kg): 26* %

IC50 [1, 7]: 1.2 nM
IC50 [2, 8]: 1.8 nM
IC50 [3, 9]: 770 nM
IC50 [4, 10]: > 1000 nM
Compound: Cc1nnc(C(=O)N2CCN(C(=O)c3cn4nc(-c5ccc(F)cc5)cc(C(C)(C)C)c4n3)C(C)(C)C2)o1 [Compound I-288]
% inhibition of carrageenan induced paw edema ([5]; dose 10 mg/kg): 48*** %

IC50 [1, 7]: 0.2 nM
IC50 [2, 8]: 0.3 nM
IC50 [3, 9]: 750 nM
IC50 [4, 10]: 670 nM
Compound: Cc1cc(C(=O)N2CCN(C(=O)c3cn4nc(-c5ccc(F)cc5)cc(C(C)(C)C)c4n3)C(C)(C)C2)[nH]n1 [Compound I-291]
% inhibition of carrageenan induced paw edema ([5]; dose 5 mg/kg): 37** %

IC50 [1, 7]: 2 nM
IC50 [2, 8]: 2 nM
IC50 [3, 9]: > 1000 nM
IC50 [4, 10]: > 1000 nM
clearance [6]: 7.15 mL/min/kg
Vd [6]: 2.04 L/kg
bioavailability [6]: 69%
half-life [6]: 5.36 h
Compound: Cc1cc(C(=O)N2CCN(C(=O)c3cn4nc(-c5ccc(F)cc5)cc(C(C)C)c4n3)C(C)(C)C2)[nH]n1 [Compound I-303]

IC50 [1, 7]: 0.6 nM
IC50 [2, 8]: 1 nM
IC50 [3, 9]: > 1000 nM
IC50 [4, 10]: 880 nM
Compound: CC(C)(C)c1cc(-c2ccc(F)cc2)nn2cc(C(=O)N3CCN(c4cn[nH]c4)C(=O)C3(C)C)nc12 [Compound I-310]
% inhibition of carrageenan induced paw edema ([5]; dose 5 mg/kg): 25** %
